The structures appear in SMILES notation. Several values for one entry are separate records, joined by “and”; a condition that tells them apart may be missing. Equal entries are not always repeated.

The nature of data set [1]: in situ brain/choroid plexus perfusion: CNS uptake of [^3H]-arginine, [^3H]-ADMA and [^14C]-sucrose (multiple-time and single-time uptake analysis). The conditions noted are these: for Kp at 30 min / Kp at 20 min: male, BALB/c, mouse, in vivo; for Kp at 20 min: tissue or CSF to plasma ratio (mean), uncorrected, given as fraction.
Method: All animals used in procedures were adult male BALB/c mice (between 23 g and 25 g) sourced from Harlan Laboratories, Oxon, UK, unless otherwise stated.
Animals were weighed immediately before the administration of the anaesthetic to ensure correct dosage. Domitor® (medetomidine hydrochloride) and Vetalar® (ketamine) were both purchased from Harlan Laboratories (Cambridge, UK). All animals were terminally anaesthetised (2 mg/kg Domitor® and 150 mg/kg Vetalar® injected intraperitoneally), and a lack of self-righting and paw-withdrawal reflexes (as surrogate indicators of consciousness) thoroughly checked prior to and during all procedures. If needed, additional anaesthetic was administered via the same route. […] At the end of the in situ brain perfusion procedure the animal was killed by decapitated under non-recovery anaesthesia. Animals were heparinised with 100 units heparin (in 0.9% m/v NaCl(aq), Harlan Laboratories; Oxon, UK), administered via the intraperitoneal route prior to surgery.
The in situ brain/choroid plexus perfusion method is designed to directly perfuse the brain with artificial plasma via a cannula placed in the heart. Artificial plasma is prepared to mimic the ionic composition of blood, and transporter inhibitors can be added in known concentrations and delivered to the brain for defined periods of time.
The left ventricle of the heart was cannulated with a 25G x 10 mm butterfly-winged needle connected to the perfusion circuit. […] The right atrium of the heart was sectioned to allow outflow of the artificial plasma. […] Radiolabelled and unlabelled test molecules were infused into the inflowing artificial plasma for periods up to 30 minutes.
At the set perfusion time a CSF sample was taken by inserting a pulled glass micropipette connected to silicon tubing and a syringe into the cisterna magna. Gentle suction was applied, and CSF was withdrawn. Only clear CSF samples were processed and taken for analysis. Samples contaminated with blood were discarded. The animal was then decapitated and the brain removed. Specific brain samples including the circumventricular organs (CVOs) were taken using a Leica S4E L2 stereomicroscope (Leica; Buckinghamshire, UK). The brain samples included the frontal cortex, caudate nucleus, occipital cortex, hippocampus, hypothalamus, thalamus, pons and cerebellum. The CVOs included the choroid plexus, pituitary gland and pineal gland.
All samples (brain regions, capillary depletion brain homogenate, pellet and supernatant, CVOs, CSF and plasma samples) were solubilised in 0.5 mL tissue solubiliser (Solvable; Perkin-Elmer; Boston, MA, USA). After incubating the samples at room temperature for 48 h, 4 mL scintillation fluid (Lumasafe®; Perkin-Elmer; Boston, MA, USA) was added to each before vigorous vortexing.
For data set [2], the system named is [^3H]-ADMA transport across the blood-brain and blood-CSF barriers. Description: cross-inhibition, in situ perfusion: [^3H]-ADMA with 100 μM unlabelled L-arginine. In kind it is in vivo, mouse. The conditions noted are these: [3H] ADMA + [14C] Sucrose + 100uM Arg, 10 mins, Balb/c ♂, 5ml/min; individual mice. On the procedure:
(§1) Self-inhibition experiments were also performed. […] Cross-competition experiments were also performed.
(§2) The percentage change in the RTissue uptake values achieved in the absence or presence of an unlabelled inhibitor can be calculated by means of Eq 4.
(§3) %change=RTissue−RInhibition/RTissue×100 Eq 4
(§4) We define RInhibition as the RTissue uptake in the presence of an inhibitor in the artificial plasma.
(§5) A decrease in the uptake of radiolabelled solute in the presence of unlabelled inhibitor is indicative of a saturable influx transport system. Conversely, an increase in the uptake of radiolabelled solute in the presence of unlabelled inhibitor is indicative of a saturable efflux transport system.

Assay in data set [3]: as above
The conditions noted are these: male, Balb/c, mouse, brain homogenate, other: in situ brain perfusion, with 100 µM unlabelled L-arginine, [3H] ADMA + [14C] Sucrose + 100uM Arg, 10 mins, Balb/c ♂, 5ml/min; mean; read-out: uptake, homogenate. The data set is classed as in vivo, mouse. How it is done: as §1, §2, §3, §4, §5

For data set [4], the system named is [3H]-ADMA transport across the blood-brain and blood-CSF barriers. The description is as above. The data set is classed as in vivo, mouse. The conditions noted are these: male, Balb/c, mouse, other: in situ brain perfusion, with 100 µM unlabelled L-arginine, [3H] ADMA + [14C] Sucrose + 100uM Arg, 10 mins, Balb/c ♂, 5ml/min. How it is done:
as §1, §2, §3, §4, §5

Data set [5] has the same test system. Description: self-inhibition, in situ perfusion: [^3H]-ADMA with 100 μM unlabelled ADMA. In kind it is in vivo, mouse. The conditions noted are these: male, Balb/c, mouse, other: in situ brain perfusion, with unlabelled ADMA 100 µM, [3H] ADMA + [14C] Sucrose + 100uM un-labelled ADMA, 10 mins, Balb/c ♂, 5ml/min, mean. On the procedure:
as §1, §2, §3, §4, §5

As to `OC[C@H]1O[C@@](CO)(O[C@H]2O[C@H](CO)[C@@H](O)[C@H](O)[C@H]2O)[C@@H](O)[C@@H]1O` [[^14C]-sucrose, reference compound], the “pineal gland: [14C] Sucrose” value in data set [1] (30 mins, Balb/c ♂, 5ml/min, single mouse) was 0.7704 and 1.659 and 1.346. For the same compound, the Kp at 30 min came to 0.0778 in data set [1] (caudate nucleus: [14C] Sucrose, 30 mins, Balb/c ♂, 5ml/min, mean); 0.059 in data set [1] (cerebellum: [14C] Sucrose, 30 mins, Balb/c ♂, 5ml/min, mean); 0.0613 in data set [1] (cerebellum: [14C] Sucrose, 30 mins, Balb/c ♂, 5ml/min, single mouse); 1.05 in data set [1] (pineal gland: [14C] Sucrose, 30 mins, Balb/c ♂, 5ml/min, mean); 0.124 in data set [1] (pons: [14C] Sucrose, 30 mins, Balb/c ♂, 5ml/min, mean); 0.0965 in data set [1] (thalamus: [14C] Sucrose, 30 mins, Balb/c ♂, 5ml/min, mean). The Kp at 20 min stood at 0.0663 in data set [1] (caudate nucleus); 0.0456 in data set [1] (cerebellum); 0.0797 in data set [1] (frontal cortex); 0.0477 in data set [1] (hippocampus); 0.0657 in data set [1] (hypothalamus); 0.524 in data set [1] (pineal gland). For the same compound, the Kp at 20 min in data set [1] (pons) amounted to 0.118; in data set [1] (thalamus), 0.0672. In addition, in data set [2], the “uptake, pellet” value came to 0.001402. The Kp at 10 min, 62.5 nM worked out at 0.0365 in data set [3]; 0.14 in data set [4] (choroid plexus, individual mice, read-out: uptake into choroid plexus); 0.145 in data set [4] (choroid plexus, mean, read-out: uptake into choroid plexus); 0.0327 in data set [4] (hypothalamus, mean, read-out: uptake into hypothalamus); 0.113 in data set [4] (pituitary gland, mean, read-out: uptake into pituitary gland); 0.0462 in data set [4] (pons, mean, read-out: uptake into pons). Moreover, the Kp at 10 min, 62.5 nM was determined as 0.138 in data set [5] (CSF, read-out: uptake into CSF) and 0.0955 in data set [5] (pituitary gland, read-out: uptake into pituitary gland).

Values taken from publication PMC11501026, “L-Arginine and asymmetric dimethylarginine (ADMA) transport across the mouse blood-brain and blood-CSF barriers: Evidence of saturable transport at both interfaces and CNS to blood efflux” (PLOS ONE, 2024).
